From patent US20260097126A1, “PHARMACEUTICAL FORMULATIONS AND METHODS FOR THE TREATMENT OF METABOLIC AND LIVER DISORDERS” (priority 2022, published 2026) come the findings set out here.

The nature of this data set: Pharmacokinetic study of Compounds 4, 14, 15, 17 in monkeys. Conditions: cynomolgus monkey, plasma, sc, 0.2 mg/kg. As for the experimental part: The formulations were administered to cynomolgus monkeys at a dose of 0.2 mg/kg. Plasma concentration versus time data was collected and pharmacokinetic values determined.

One may read the AUC(0-inf) as the area under the concentration-time curve extrapolated to infinity. One may read the AUC(0-t) as the area under the concentration-time curve up to a stated or last time point. One may read the CL/F as the apparent clearance, not corrected for the fraction that reaches the circulation. As usually defined, the Cmax is the highest concentration seen after dosing. The Tmax is the time at which the peak concentration occurs. As usually defined, the Vd/F is the apparent distribution volume after extravascular dosing. As usually defined, the half-life is how long it takes for the measured level to halve. The low end stands for fast loss, the high end for slow loss.

Molecules are shown by their SMILES. Numbered stars: 1 amine (or outer) side, 2 acyl side, 3 side chain; on linkers, the order of the positions; unused ones are H or OH. Square brackets hold non-standard residues; d marks the D form. Side chains are listed from the residue outwards. Peptide text beside a SMILES is read from it. * marks the point of attachment. Nonadecanoyl(19-PO3H2) = O=C(CCCCCCCCCCCCCCCCCCP(=O)(O)O)*; γGlu = O=C(O)[C@H](CCC(=O)[*:2])N[*:1]; AEEA = NCCOCCOCC(=O)O; Aib = CC(C)(N)C(=O)O

Take `CC[C@H](C)[C@H](NC(=O)[C@H](CC(C)C)NC(=O)[C@H](Cc1c[nH]c2ccccc12)NC(=O)[C@H](CCC(N)=O)NC(=O)[C@@H](NC(=O)[C@H](Cc1ccccc1)NC(=O)[C@H](C)NC(=O)[C@H](CCCCNC(=O)COCCOCCNC(=O)COCCOCCNC(=O)CC[C@H](NC(=O)CCCCCCCCCCCCCCCCCCP(=O)(O)O)C(=O)O)NC(=O)[C@H](CCC(N)=O)NC(=O)[C@H](C)NC(=O)[C@@H](NC(=O)[C@H](CCCCN)NC(=O)[C@H](CC(=O)O)NC(=O)[C@H](CC(C)C)NC(=O)C(C)(C)NC(=O)[C@@H](NC(=O)[C@H](CO)NC(=O)[C@H](Cc1ccc(O)cc1)NC(=O)[C@H](CC(=O)O)NC(=O)[C@H](CO)NC(=O)[C@@H](NC(=O)[C@H](Cc1ccccc1)NC(=O)[C@@H](NC(=O)CNC(=O)[C@H](CCC(=O)O)NC(=O)C(C)(C)NC(=O)[C@@H](N)Cc1ccc(O)cc1)[C@@H](C)O)[C@@H](C)O)[C@@H](C)CC)[C@@H](C)CC)C(C)C)C(=O)N[C@@H](C)C(=O)NCC(=O)NCC(=O)N1CCC[C@H]1C(=O)N[C@@H](CO)C(=O)N[C@@H](CO)C(=O)NCC(=O)N[C@@H](C)C(=O)N1CCC[C@H]1C(=O)N1CCC[C@H]1C(=O)N1CCC[C@H]1C(=O)N[C@@H](CO)C(N)=O` [Compound 14]: the AUC(0-inf) was 179 µg·h/mL, the AUC(0-t) was 178 µg·h/mL, the CL/F is 28.6 mL/day/kg and the concentration peaked (Cmax) at 1430 ng/mL. Further, the Tmax is 24 h, the Vd/F came to 0.104 L/kg and the half-life is 60.9 h.

The compound `CC[C@H](C)[C@H](NC(=O)[C@H](CC(C)C)NC(=O)[C@H](Cc1c[nH]c2ccccc12)NC(=O)[C@H](CCC(N)=O)NC(=O)[C@@H](NC(=O)[C@H](Cc1ccccc1)NC(=O)[C@H](C)NC(=O)[C@H](CCC(N)=O)NC(=O)[C@H](CCC(N)=O)NC(=O)[C@H](C)NC(=O)[C@@H](NC(=O)[C@H](CCCCNC(=O)COCCOCCNC(=O)COCCOCCNC(=O)CC[C@H](NC(=O)CCCCCCCCCCCCCCCCCCP(=O)(O)O)C(=O)O)NC(=O)[C@H](CC(=O)O)NC(=O)[C@H](CC(C)C)NC(=O)C(C)(C)NC(=O)[C@@H](NC(=O)[C@H](CO)NC(=O)[C@H](Cc1ccc(O)cc1)NC(=O)[C@H](CC(=O)O)NC(=O)[C@H](CO)NC(=O)[C@@H](NC(=O)[C@H](Cc1ccccc1)NC(=O)[C@@H](NC(=O)CNC(=O)[C@H](CCC(=O)O)NC(=O)C(C)(C)NC(=O)[C@@H](N)Cc1ccc(O)cc1)[C@@H](C)O)[C@@H](C)O)[C@@H](C)CC)[C@@H](C)CC)C(C)C)C(=O)N[C@@H](C)C(=O)NCC(=O)NCC(=O)N1CCC[C@H]1C(=O)N[C@@H](CO)C(=O)N[C@@H](CO)C(=O)NCC(=O)N[C@@H](C)C(=O)N1CCC[C@H]1C(=O)N1CCC[C@H]1C(=O)N1CCC[C@H]1C(=O)N[C@@H](CO)C(N)=O` [Compound 15] (H-Y[Aib]EGTFTSDYSI[Aib]LDK([AEEA-AEEA-γGlu-Nonadecanoyl(19-PO3H2)])IAQQAFVQWLIAGGPSSGAPPPS-NH2) had an AUC(0-inf) of 227 µg·h/mL, an AUC(0-t) of 221 µg·h/mL, a CL/F of 21.4 mL/day/kg and a Cmax of 2260 ng/mL. Also, the Tmax came out at 18.7 h, the Vd/F turned out to be 0.114 L/kg and the half-life is 89.3 h.

With `CC[C@H](C)[C@H](NC(=O)[C@H](CC(C)C)NC(=O)[C@H](Cc1c[nH]c2ccccc12)NC(=O)[C@H](CCC(N)=O)NC(=O)[C@@H](NC(=O)[C@H](Cc1ccccc1)NC(=O)[C@H](C)NC(=O)[C@H](CCCCNC(=O)COCCOCCNC(=O)COCCOCCNC(=O)CC[C@H](NC(=O)CCCCCCCCCCCCCCCCCCP(=O)(O)O)C(=O)O)NC(=O)[C@H](CCC(N)=O)NC(=O)[C@H](C)NC(=O)[C@@H](NC(=O)[C@H](CCCCN)NC(=O)[C@H](CC(=O)O)NC(=O)[C@H](CC(C)C)NC(=O)C(C)(C)NC(=O)[C@@H](NC(=O)[C@H](CO)NC(=O)[C@H](Cc1ccc(O)cc1)NC(=O)[C@H](CC(=O)O)NC(=O)[C@H](CO)NC(=O)[C@@H](NC(=O)[C@H](Cc1ccccc1)NC(=O)[C@@H](NC(=O)CNC(=O)[C@H](CCC(=O)O)NC(=O)C(C)(C)NC(=O)[C@@H](N)Cc1ccc(O)cc1)[C@@H](C)O)[C@@H](C)O)[C@@H](C)CC)C(C)C)C(C)C)C(=O)N[C@@H](CCCNC(=N)N)C(=O)NCC(=O)NCC(=O)N1CCC[C@H]1C(=O)N[C@@H](CO)C(=O)N[C@@H](CO)C(=O)NCC(=O)N[C@@H](C)C(=O)N1CCC[C@H]1C(=O)N1CCC[C@H]1C(=O)N1CCC[C@H]1C(=O)N[C@@H](CO)C(N)=O` [Compound 17] (H-Y[Aib]EGTFTSDYSI[Aib]LDKVAQK([AEEA-AEEA-γGlu-Nonadecanoyl(19-PO3H2)])AFVQWLIRGGPSSGAPPPS-NH2), the AUC(0-inf) worked out at 346 µg·h/mL, the AUC(0-t) was determined as 316 µg·h/mL, the CL/F was 14.2 mL/day/kg and the Cmax is 1980 ng/mL. Besides, the Tmax came to 28 h, the Vd/F came to 0.113 L/kg and the half-life was 134 h.
